Here are results for one compound from US12503617B2, “Ink jet ink composition and recording method” (SEIKO EPSON CORPORATION, priority 2022, dated 2025).

A short description of this data set: Solubility in 100 g of water at 20° C.

Regarding `CC(CO)(CO)CO` [trimethylolethane], the solubility entry is “approximately 60 g/100 g of water”.
